“Also recorded” adds a separate entry of the source. No end group written: not given here.
Key:
NCI-H1703 cells = test: Alamar Blue cell viability and growth assay; format: cell-based, human
Description: Cells were seeded in black wall 96-well plate in triplicate and treated with various doses of peptide on Day 0 and were incubated at 37° C. in a humid incubator with 5% CO2. After 72 hours, Alamar Blue assay was performed.
Cells were seeded in black wall 96-well plate in triplicate and treated with 10 μM peptide or DMSO on Day 0, and the cell viability was measured by Alamar Blue assay after 24, 48 and 72 hours.
Cell viability assay: Cells were seeded in black wall 96-well plate in triplicate and treated with various doses of peptide on Day 0 and were incubated at 37° C. in a humid incubator with 5% CO2. After 72 hours, Alamar Blue assay was performed according to the instruction from manufacturer. For cell growth profile, the cells were seeded in black wall 96-well plate in triplicate and treated with 10 μM peptide or DMSO on Day 0, and cell viability was measured by Alamar Blue assay after 24, 48 and 72 hours.

[1] = tested on: Wnt3a-stimulated β-catenin signaling in HEK293S cells; test: TOPGLOW luciferase reporter assay in HEK293S cells; format: cell-based
Description: HEK293S cells were transfected with the reporter plasmid pTOPGLOW combined with pRL reporter. Cell extract was prepared and the luciferase activity was measured. The relative luciferase unit (RLU) is TopGlow luciferase activity divided by Renila luciferase activity. The fold of activation is the RLU ratio between the Wnt3a-stimulated and non-stimulated cells. Cells were treated with either 10 μM (light bar) or 20 μM (dark bar) peptide ligands.
(§1) Cell culture, transfection and peptide treatment: HEK293 and H1703 were propagated according to the instructions from American Type Culture Collection. HEK293 cells were transfected with FuGene6 according to the manufacturer's instructions (Roche Molecular Biochemicals) at cell confluence of 50%. H1703 cells were transfected with Lipofectamine according to manufacturer's instruction at cell confluence of 80%. Cells were treated with medium containing peptide (5 μM-40 μM) 24 hours after transfection, and were routinely harvested 24 hours after the peptide treatment for additional assays.
(§2) TOPGLOW assay: Cells were plated in 12-well plates. The TOPGLOW reporter plasmid was transfected transiently into cells as described above. TCF-mediated gene transcription was determined by pTOPGLOW luciferase activity, which was normalized to relative luciferase activities of pRL reporter (cotransfected internal control). All experiments were performed duplicated.

[2] = tested on: Wnt-stimulated β-catenin signaling in NCI-H1703 cells; test: TOPGLOW luciferase reporter assay in NCI-H1703 cells; format: cell-based, human
Description: NCI-H1703 cells were transfected with the reporter plasmid pTOPGLOW combined with pRL reporter. Cell extract was prepared and the luciferase activity was measured. The relative luciferase unit is TopGlow luciferase activity divided by Renila luciferase activity. The fold of activation is the RLU ratio between the Wnt3a-stimulated or non-stimulated cells.
as §1, §2

[3] = tested on: β-catenin protein level in HEK293S cells; test: Western blot of β-catenin protein level in HEK293S cells; format: cell-based; details: 20 μM peptide, 24 hours, compared to DMSO and PEN
Description: HEK293S cells were treated with 20 μM DVLp and PEN for 24 hours. Cell lysate was prepared and subjected to SDS-PAGE. β-catenin was blotted by poly-clonal anti-β-catenin (Genentech, Inc., South San Francisco).
as §1
Western Blot: Harvested cells were lysed with SIC lysis buffer, the supernatant was subjected to SDS-PAGE, which was transferred, blocked and blotted with proper primary antibody by a standard western blot protocol. Fluorescence labeled secondary antibodies (Alexa goat anti-mouse or anti-rabbit) were added and the results were analyzed by Li-core™.

Dvl2 = molecular target: T1, Dvl2 (Homo sapiens, UniProt O14641); test: GST pull-down from HEK293S cell extract, blot with anti-Dvl2; format: binding; details: HEK293 cell lysate, glutathione Sepharose-4B beads
T1 construct: All three endogenous Dvl could be detected in crude cell lysate of HEK293, and could be pulled down by GST-Dvlpep; endogenous in cells; host or cells: HEK293S
T1 sequence (O14641 1-736): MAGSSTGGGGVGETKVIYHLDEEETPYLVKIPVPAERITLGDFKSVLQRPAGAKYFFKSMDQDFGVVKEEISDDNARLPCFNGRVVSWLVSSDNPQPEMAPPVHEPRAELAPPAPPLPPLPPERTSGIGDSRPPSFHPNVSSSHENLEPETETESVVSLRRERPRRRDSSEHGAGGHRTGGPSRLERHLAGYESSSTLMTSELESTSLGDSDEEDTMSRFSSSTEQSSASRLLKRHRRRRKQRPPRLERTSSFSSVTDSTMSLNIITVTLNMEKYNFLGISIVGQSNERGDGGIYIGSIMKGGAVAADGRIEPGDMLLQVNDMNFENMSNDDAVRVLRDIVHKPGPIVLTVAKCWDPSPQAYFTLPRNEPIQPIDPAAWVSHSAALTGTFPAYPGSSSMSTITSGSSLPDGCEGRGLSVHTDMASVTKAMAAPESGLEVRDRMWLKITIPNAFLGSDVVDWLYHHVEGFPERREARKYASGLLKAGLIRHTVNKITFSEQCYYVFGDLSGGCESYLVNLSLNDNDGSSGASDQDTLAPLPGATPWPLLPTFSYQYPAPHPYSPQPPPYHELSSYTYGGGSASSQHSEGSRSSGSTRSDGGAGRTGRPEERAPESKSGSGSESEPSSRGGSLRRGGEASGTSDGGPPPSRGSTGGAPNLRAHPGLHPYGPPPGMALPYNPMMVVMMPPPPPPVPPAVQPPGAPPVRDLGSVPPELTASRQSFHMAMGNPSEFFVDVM
Description: (§3) Cell lysate of HEK293S cell was prepared and the whole protein concentration was normalized to 1 mg/ml. GST or GST-DVLpep fusion protein was bound to glutathione Sepharose-4B. Beads carrying protein (2-10 μg) were incubated with cell extract of HEK293S cells overnight at 4° C. The beads were washed with washing buffer (PBS, 0.5% BSA, 0.1% Tween 20) for 10 times and resuspended in SDS sample buffer, incubated at 90° C. for 10 min and the supernatant was subjected to SDS-PAGE. The crude cell extract was also subjected to the same SDS-PAGE. Dvl proteins were blotted by anti-Dvl1, anti-Dvl2, and anti-Dvl3.
(§4) Pull-down Assays—GST or GST-DVLpep fusion protein (GST fused with peptide GGGKWYGWL (SEQ ID NO: 182) at its C-terminus) was bound to glutathione Sepharose-4B following standard protocols, and bound proteins were quantified by SDS-PAGE using known amounts of BSA as standards. Beads carrying protein (2-10 μg) were incubated with cell extract of HEK293S cell overnight at 4° C. The cell extracts were prepared by lysing the cell in SJC lysis buffer. The whole protein concentration was determined by BCA protein kit (Promega; Madison, Wis.) and normalized to 1 mg/ml. […] Bound proteins were blotted by anti-Dvl1, anti-Dvl2 and anti-Dvl3 and analyzed by Li-core™.

Dvl3 = molecular target: T2, Dvl3 (Homo sapiens, UniProt Q92997); test: GST pull-down from HEK293S cell extract, blot with anti-Dvl3; format: binding; details: HEK293 cell lysate, glutathione Sepharose-4B beads
T2 construct: All three endogenous Dvl could be detected in crude cell lysate of HEK293, and could be pulled down by GST-Dvlpep; endogenous in cells; host or cells: HEK293S
T2 sequence (Q92997 1-716): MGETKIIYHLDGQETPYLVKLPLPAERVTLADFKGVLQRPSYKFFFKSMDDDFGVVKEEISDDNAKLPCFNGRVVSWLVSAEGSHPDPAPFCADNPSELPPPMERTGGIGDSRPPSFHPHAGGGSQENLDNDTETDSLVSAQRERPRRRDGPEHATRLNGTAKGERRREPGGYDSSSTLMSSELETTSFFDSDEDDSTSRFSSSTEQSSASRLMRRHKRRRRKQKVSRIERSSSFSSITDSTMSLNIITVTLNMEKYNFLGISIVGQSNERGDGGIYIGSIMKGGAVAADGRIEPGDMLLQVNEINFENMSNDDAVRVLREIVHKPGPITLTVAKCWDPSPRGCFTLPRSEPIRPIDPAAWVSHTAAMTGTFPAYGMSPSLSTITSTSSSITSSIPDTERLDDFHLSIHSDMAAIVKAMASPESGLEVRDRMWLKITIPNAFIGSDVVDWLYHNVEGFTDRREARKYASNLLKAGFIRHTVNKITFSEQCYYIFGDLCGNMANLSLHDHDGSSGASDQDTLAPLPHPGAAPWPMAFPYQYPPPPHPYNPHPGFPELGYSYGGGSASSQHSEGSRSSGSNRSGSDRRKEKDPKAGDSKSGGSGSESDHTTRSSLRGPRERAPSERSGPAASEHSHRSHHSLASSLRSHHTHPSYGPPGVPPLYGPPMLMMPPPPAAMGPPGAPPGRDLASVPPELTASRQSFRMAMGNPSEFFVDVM
Description: as §3, §4

Dvl1 = molecular target: T3, Dvl1 (Homo sapiens, UniProt O14640); test: GST pull-down from HEK293S cell extract, blot with anti-Dvl1; format: binding; details: HEK293 cell lysate, glutathione Sepharose-4B beads
T3 construct: All three endogenous Dvl could be detected in crude cell lysate of HEK293, and could be pulled down by GST-Dvlpep; endogenous in cells; host or cells: HEK293S
T3 sequence (O14640 1-695): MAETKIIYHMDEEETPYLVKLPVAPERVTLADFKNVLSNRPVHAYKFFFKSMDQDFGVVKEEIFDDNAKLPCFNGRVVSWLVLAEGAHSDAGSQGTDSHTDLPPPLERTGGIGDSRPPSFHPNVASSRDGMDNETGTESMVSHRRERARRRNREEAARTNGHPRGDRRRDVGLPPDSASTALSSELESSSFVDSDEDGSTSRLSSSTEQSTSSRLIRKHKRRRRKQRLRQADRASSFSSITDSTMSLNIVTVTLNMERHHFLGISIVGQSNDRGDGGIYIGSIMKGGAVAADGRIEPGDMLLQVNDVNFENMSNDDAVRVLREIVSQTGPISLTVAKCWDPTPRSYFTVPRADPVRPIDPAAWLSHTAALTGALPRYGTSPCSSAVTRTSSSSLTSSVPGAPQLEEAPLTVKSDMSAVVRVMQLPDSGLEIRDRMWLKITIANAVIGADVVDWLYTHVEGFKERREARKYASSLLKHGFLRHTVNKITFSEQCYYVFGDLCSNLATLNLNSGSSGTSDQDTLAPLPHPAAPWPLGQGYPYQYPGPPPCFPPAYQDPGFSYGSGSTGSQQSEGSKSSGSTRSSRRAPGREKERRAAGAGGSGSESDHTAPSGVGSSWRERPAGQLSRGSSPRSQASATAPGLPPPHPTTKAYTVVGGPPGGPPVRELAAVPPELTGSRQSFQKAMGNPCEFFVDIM
Description: as §3, §4

Pull-down of endogenous Dvl2 (Dvl2)	Pull-down of endogenous Dvl3 (Dvl3)	Pull-down of endogenous Dvl1 (Dvl1)	Substance	Cell growth profile (NCI-H1703 cells; NCI-H1703, 10 μM peptide, 24, 48 and 72 hours)	Cell viability with Wnt3a stimulation (NCI-H1703 cells; NCI-H1703, 72 hours, peptide dose of 5 μM)	Cell viability without Wnt3a stimulation (NCI-H1703 cells; NCI-H1703, 72 hours, peptide dose over 10 μM)	Effect on Wnt3a-stimulated transcriptional activity (TopGlow) ([1]; HEK293S cells, peptide up to 20 μM in medium)	Dose dependence of inhibition of Wnt-stimulated β-catenin signaling ([1]; HEK293S cells, two independent experiments)	Inhibition of Wnt3a-stimulated transcriptional activity ([1]; HEK293 cells, peptide 5-20 μM)	Effect on Wnt-stimulated β-catenin signaling / Tcf-stimulated transcriptional activity (TopGlow) [2]	β-catenin level in whole cell lysate upon Wnt3a stimulation [3]
–	–	–	Ac-RQIKIWFQNRRMKWKKKWYGWL [DVLp_C]	much slower than that of DMSO or PEN-treated cells; also recorded: effectively suppressed the cell growth	lower viability of DVLp_C-treated cells compared to PEN-treated cells	much lower viability than PEN-treated cells	inhibited Wnt3a-stimulated transcriptional activity significantly; also recorded: significantly blocked the Wnt-stimulated increase in β-catenin signaling	dose-dependent	about 50%	inhibited by DVLp_C treatment significantly; also recorded: blocked the Wnt-stimulated increase in β-catenin signaling	significantly lower β-catenin levels; also recorded: reduced the Wnt-stimulated increase in β-catenin protein level
pulled down	pulled down	pulled down	GST-Dvlpep: GST fused with peptide GGGKWYGWL (SEQ ID NO: 182) at its C-terminus ({GST}-GGGKWYGWL)	–	–	–	–	–	–	–	–

— patent publication US7977064B2, “Disheveled PDZ modulators” (Genentech, Inc., priority 2006, dated 2011)
